Values quoted from earlier work in article PMC7395068, “The evolution of strategies to minimise the risk of human drug-induced liver injury (DILI) in drug discovery and development” (Archives of Toxicology, 2020).
Read-outs that look alike come from different tables or passages of the source.

How the values were obtained:
[1] = cited from earlier work
HepG2 cells [2] = conditions: cited from earlier work; for Structural based (HCI), In vitro Assay: HepG2 HCI
[3] = ref Chen 2016; cited from earlier work
[4] = ref Chen 2011; cited from earlier work
PHH spheroids = conditions: In vitro Assay; ref Vorrink 2018; cited from earlier work
PHH = conditions: In vitro Assay; ref Proctor 2017; cited from earlier work
human hepatocytes = conditions: In vitro Assay; ref Xu 2008; cited from earlier work
[5] = tested on: THLE or HepG2 cells, isolated mitochondria, BSEP; conditions: In vitro Assay; ref Aleo 2019; cited from earlier work
[6] = tested on: HepG2 C3A spheroid, BSEP, Glu/Gal in HepG2 cells, bioactivation; conditions: In vitro Assay; ref Williams 2019; cited from earlier work
hLiMTs = conditions: In vitro Assay; ref Proctor 2017; cited from earlier work
HepG2 cells [7] = conditions: In vitro Assay; ref O'Brien 2006; cited from earlier work
[8] = tested on: primary human hepatocytes, NIH3T3 fibroblasts, BSEP, CYP3A4; conditions: In vitro Assay; ref Schadt 2015; cited from earlier work
HepG2 cells [9] = conditions: In vitro Assay; ref Persson 2013; cited from earlier work
[10] = tested on: isolated mouse liver mitochondria; conditions: In vitro Assay; ref Porceddu 2012; cited from earlier work
rBsep = conditions: In vitro Assay; ref Dawson 2012; cited from earlier work
[11] = tested on: HepG2 cells, primary human hepatocytes; conditions: In vitro Assay; ref Garside 2014; cited from earlier work
[12] = tested on: THLE-Null and THLE-3A4 cells; conditions: In vitro Assay; ref Gustafsson 2014; cited from earlier work
[13] = assignment in Tolosa 2012, ref Tolosa 2012

Row | Structure (SMILES) | DILI +VE (5-8), DILI -VE (-4) [3] | DILI severity category [3] | DILI Score (FDA) (1-8) [4] | hLiMTs ATP <20 x Cmax (PHH spheroids) | In vivo DILI ([1]; […]) | In vivo DILI ([1]; ref O'Brien 2006) | In vivo DILI ([1]; ref Proctor 2017) | In vivo DILI ([1]; ref Vorrink 2018) | In vivo DILI ([1]; ref Williams 2019) | In vivo DILI ([1]; ref Xu 2008) | PHH ATP <100uM (PHH) | Structural based (HCI) (human hepatocytes) | Ro2 Hybrid HRM Score [5] | Bayesian Machine Learning [6] | hLiMTs ATP <100uM (hLiMTs) | Structural based (HCI) (HepG2 cells [7]) | In vivo DILI ([1]; ref Garside 2014) | In vivo DILI ([1]; ref Gustafsson 2014) | Cluster 1-6 +VE Assay [11] | THLE-Null [12] | also measured
1 | CCOC(=O)CC(SP(=S)(OC)OC)C(=O)OCC (centres unmarked) [malathion] |  |  |  |  |  |  |  |  |  |  |  |  |  |  |  |  |  |  |  |  | In vivo DILI [1, 13]: +VE; Structural based (HCI), In vitro Assay (HepG2 cells [2]; ref Tolosa 2012): +VE
2 | CCCC(CCC)C(=O)O [sodium valproate] |  |  |  |  |  |  |  |  |  |  |  |  |  |  |  |  |  |  |  |  | Structural based (HCI), In vitro Assay (HepG2 cells [2]; ref Tolosa 2012): +VE
3 | CN(CCCC(=O)c1cccnc1)N=O [nnk] |  |  |  |  |  |  |  |  |  |  |  |  |  |  |  |  |  |  |  |  | In vivo DILI [1, 13]: +VE; Structural based (HCI), In vitro Assay (HepG2 cells [2]; ref Tolosa 2012): +VE
4 | Fc1ccc([C@@H]2CCNC[C@H]2COc2ccc3c(c2)OCO3)cc1 [paroxetine] | +VE | vLess-DILI-Concern | 8 | -VE | -VE | +VE | +VE | -VE | +VE | -VE | +VE (IC50 threshold of 100 µM) | -VE | -VE | +VE | +VE (IC50 threshold of 100 µM) | -VE |  |  |  |  | In vivo DILI ([1]; ref Aleo 2019): +VE; Partition Hybrid HRM Score [5]: +VE
5 | CC(C)(OO)c1ccccc1 [cumene hydroperoxide] |  |  |  |  |  |  |  |  |  |  |  |  |  |  |  |  |  |  |  |  | In vivo DILI ([1]; ref Tolosa 2012): +VE; Structural based (HCI) (HepG2 cells [2]; In vitro Assay, ref Tolosa 2012): +VE
6 | COC(c1ccccc1)(c1ccccc1)[C@H](Oc1nc(C)cc(C)n1)C(=O)O [ambrisentan] | -VE | Ambiguous DILI-concern | 5 | -VE |  |  | -VE | -VE | -VE |  | -VE |  | -VE | -VE | -VE |  |  |  |  |  | In vivo DILI ([1]; ref Schadt 2015): -VE; Partition Hybrid HRM Score [5]: -VE; Cellular toxicity (3T3 cells) [8]: -VE; Combined Assay [8]: -VE; GSH adduct HML [8]: -VE; Hepatocyte cellular toxicity [8]: -VE; MitoTox 3T3 [8]: -VE; TDI CYP3A4 [8]: -VE; hBSEP inhibition [8]: -VE
7 | CC1=C(CC(=O)O)c2cc(F)ccc2/C1=C\c1ccc([S+](C)[O-])cc1 (centres unmarked) [sulindac] | +VE | vMost-DILI-Concern | 8 |  | +VE | +VE |  |  |  | +VE |  | +VE |  |  |  | +VE | +VE | +VE | -VE | -VE | In vivo DILI ([1]; ref Aleo 2019): +VE; In vivo DILI ([1]; ref Dawson 2012): +VE; In vivo DILI ([1]; ref Persson 2013): +VE; In vivo DILI ([1]; ref Porceddu 2012): +VE; In vivo DILI ([1]; ref Schadt 2015): +VE; Cluser analysis (HepG2 cells [9]): -VE; Structural based (HCI) (HepG2 cells [9]): -VE; in vitro data EC2<=1x Cmax [10]: +VE; in vitro data EC20<=2uM [10]: +VE; Inhibition of rBsep cutoff<1& cmax u>.2 (rBsep): +VE; Inhibition of rBsep cutoff<3 (rBsep): +VE; Cellular toxicity (3T3 cells) [8]: -VE; Combined Assay [8]: +VE; GSH adduct HML [8]: +VE; Hepatocyte cellular toxicity [8]: -VE; MitoTox 3T3 [8]: -VE; TDI CYP3A4 [8]: -VE; hBSEP inhibition [8]: -VE
8 | NC(=O)OCC(COC(N)=O)c1ccccc1 [felbamate] | +VE | vMost-DILI-Concern | 7 |  | +VE | +VE | +VE |  | +VE | +VE | -VE | -VE |  | +VE | -VE | +VE | +VE | +VE | -VE | -VE | In vivo DILI ([1]; ref Dawson 2012): +VE; In vivo DILI ([1]; ref Persson 2013): +VE; Cluser analysis (HepG2 cells [9]): -VE; Structural based (HCI) (HepG2 cells [9]): -VE; Inhibition of rBsep cutoff<1& cmax u>.2 (rBsep): -VE; Inhibition of rBsep cutoff<3 (rBsep): -VE; THLE-Null/3A4 [12]: -VE
9 | CN(C)/N=N/c1[nH]cnc1C(N)=O [dacarbazine] | +VE | vMost-DILI-Concern | 6 | +VE (IC20 < 20 × Cmax.tot cut-off) | +VE |  |  | +VE |  |  |  |  | +VE |  |  |  | +VE | +VE | -VE | -VE | In vivo DILI ([1]; ref Aleo 2019): +VE; Partition Hybrid HRM Score [5]: -VE; THLE-Null/3A4 [12]: -VE
10 | CN1[C@@H]2CC[C@H]1C[C@@H](OC(=O)C(CO)c1ccccc1)C2 (some centres unmarked) [atropine] |  |  |  |  |  |  |  |  |  |  |  |  |  |  |  |  |  |  |  |  | Structural based (HCI) (HepG2 cells [2]): +VE
11 | CC(c1cc2ccccc2s1)N(O)C(N)=O (centres unmarked) [zileuton] | +VE | vMost-DILI-Concern | 5 | -VE | +VE | +VE | +VE | +VE | +VE | +VE | -VE | +VE |  | +VE | -VE | +VE | +VE | +VE | -VE | -VE | In vivo DILI ([1]; ref Dawson 2012): +VE; In vivo DILI ([1]; ref Persson 2013): +VE; Cluser analysis (HepG2 cells [9]): -VE; Structural based (HCI) (HepG2 cells [9]): +VE; Inhibition of rBsep cutoff<1& cmax u>.2 (rBsep): -VE; Inhibition of rBsep cutoff<3 (rBsep): -VE; THLE-Null/3A4 [12]: -VE
12 | C#C[C@]1(O)CC[C@H]2[C@@H]3CCc4cc(O)ccc4[C@H]3CC[C@@]21C [17-a ethynylestradiol] |  |  |  |  |  |  |  |  |  |  |  |  |  |  |  |  |  |  |  |  | Structural based (HCI) (HepG2 cells [2]): +VE
13 | CNCCCN1c2ccccc2CCc2ccccc21 [desipramine] | -VE | Ambiguous DILI-concern | 3 |  |  |  | +VE |  | +VE | -VE | +VE (IC50 threshold of 100 µM) |  | +VE | +VE | +VE (IC50 threshold of 100 µM) |  |  |  |  |  | In vivo DILI ([1]; ref Schadt 2015): -VE
